Results reported in paper PMC11477000, “Enantioselective Binding of Proton Pump Inhibitors to Alpha1-Acid Glycoprotein and Human Serum Albumin—A Chromatographic, Spectroscopic, and In Silico Study” (International Journal of Molecular Sciences, 2024).
Values belong to the compound of their own block, whether it stands above or below them.

Experiments:
Assay type in all cases: binding
[1] = biological target: T1, human serum albumin (HSA) (Homo sapiens, UniProt P02768); test: HPLC on HSA-based chiral stationary phase (Daicel Chiralpak HSA column); details: for EEO enantiomer elution order / Rs resolution / k1 retention factor (first-eluting enantiomer) / k2 retention factor (second-eluting enantiomer): HSA column, 25 °C
Procedure: HPLC using a protein-based chiral stationary phase is a fully automated method for obtaining rapid information about the binding of compounds to the respective proteins. Enantioseparation occurs in the case of unequal binding constants of the individual enantiomers to the immobilized proteins, thus allowing enantioselective binding to be characterized even when a racemic mixture was injected. As a preliminary step, the enantiospecific binding was investigated on columns containing AGP and HSA in various alcohol:buffer mixtures. A pH 7 phosphate buffer was employed as the aqueous part of the mobile phase, while for the organic part, three different alcohols were evaluated.
In the following step, we investigated the effect of changing some other chromatographic conditions on the protein binding. The pH of the aqueous phase influenced the protonation state of both the analyte and the proteins. It should be noted that the pH tolerance of protein-based columns is narrow due to the possible denaturation of proteins. Taking into account the guidelines of the manufacturer, three different pH values were investigated (pH 6, 6.5, and 7) at a 95:5 (v/v%) buffer:IPA eluents ratio [49]. The buffer was uniformly 10 mM phosphate. […] The effect of different buffer constituents was also evaluated. In addition to phosphate buffer, ammonium acetate, ammonium bicarbonate, and sodium citrate were tested and compared under the same conditions.
Chromatographic measurements were carried out on two separate HPLC systems. The AGP binding study was performed on a Waters 2695e chromatographic system paired with a Waters 2996 PDA detector, controlled by Empower 3 FR5 (Waters Corp., Milford, MA, USA), while the HSA binding study was performed on an Agilent 1100 HPLC system, consisting of an inline degasser (G1322A), a quaternary pump (G1311A), an automatic injector (G1329A) paired with sample thermostat (G1330A), a column thermostat (G1316A), and a diode array detector (G1315A) with Agilent Chemstation B04.03-SP2 software (Agilent, Bronnwald, Germany). For the binding studies, two protein-based chiral stationary phases were utilized. The chromatographic binding study for AGP was conducted on a ChromTech Chiral-AGP column (150 mm × 4.0 mm; ChromTech Ltd., Congleton, UK), while the binding study for HSA was performed on a Daicel Chiralpak HSA column (50 mm × 4.0 mm; Daicel Corp., Osaka, Japan). The detection wavelength was 210 nm for all measurements. The stock solutions of PPIs were prepared at a concentration of 1 mg/mL in MeOH. Subsequent dilutions were prepared using water. The injected samples were mixed and diluted from the stock solutions. The final concentration for the eutomer was 0.2 mg/mL, and for the distomer, it was 0.1 mg/mL. A volume of 2 μL was injected. To mitigate the instability of PPIs in aqueous solutions, the samples were kept at a temperature of 4 °C.

[2] = biological target: T1, human serum albumin (HSA); test: van 't Hoff thermodynamic analysis on HSA column; details: for Δ(ΔG°) / Δ(ΔH°) / Δ(ΔS°): pH 7, 95:5 buffer:IPA, 10–30 °C
Procedure: The temperature effect was investigated at pH 7 and a 95:5 buffer:IPA eluents ratio, between 10 and 30 °C on both columns. […] The determination of thermodynamic parameters can provide valuable insights into the process of enantiodiscrimination, including its mechanistic aspects. The applied classical van ’t Hoff methodology postulates the existence of solely enantioselective interaction sites on the stationary phase. Nonetheless, it should be emphasized that a more realistic approach would encompass both enantioselective and non-enantioselective interactions. The isoenantioselective temperatures (Tiso) were calculated by dividing Δ(ΔH°) by Δ(ΔS°). At this temperature, enthalpy and entropy compensations negate each other, resulting in the coelution of the two enantiomers and no separation. The Q values (Q = Δ(ΔH°)/T × Δ(ΔS°)298K) were used for visualizing the relative contribution of enthalpic and entropic terms to the free energy of adsorption. If the Q values were smaller than 1, the enantioseparation was controlled by entropy to a higher extent.
Classical van ’t Hoff analysis was applied to determine the thermodynamic parameters. Van ’t Hoff plots were constructed by plotting the natural logarithm of the retention factor as a function of the inverse of the absolute temperature (thermodynamic temperature) over a temperature range of 10–30 °C:(5) […]
In the equation, R represents the universal gas constant, T represents the absolute temperature in Kelvin, and k represents the retention factor of the enantiomers. ΔH° stands for the standard enthalpy, while ΔS° represents the standard entropy change of transfer of the solute from the mobile phase to the stationary phase. Φ is the phase ratio of the column. If ΔH° remains constant within the selected temperature range, a linear relationship can be observed between lnk and 1/T. The slope of this relationship is −ΔH°/R, and the intercept is ΔS°/R + ln Φ. Since the value of the phase ratio is rarely known, ΔS°* values (ΔS°* = ΔS° + Rln Φ) are often used to account for the uncertainty in Φ. Similarly, the difference in the change of standard enthalpy, Δ(ΔH°), and standard entropy, Δ(ΔS°), for the two enantiomers was calculated as follows:(6) lnα=−ΔΔH°/RT+ΔΔS°/R

[3] = biological target: T1, human serum albumin (HSA); test: Displacement chromatography on HSA column with warfarin and ibuprofen as competitors; details: IPA:10 mM pH 7 phosphate buffer 1:99, 25 °C
Procedure: For identification of the binding site of HSA, a displacement chromatography and fluorescence displacement study were performed. In the case of chromatography, to the mobile phase, increasing concentrations of the competitors, warfarin and ibuprofen, that are known to bind to specific binding sites on HSA, Sudlow site I and Sudlow site II, respectively, were added. In the case of the fluorescence displacement study, the fluorescence quenching data of the PPI-HSA system in the presence of warfarin and ibuprofen were investigated.
(Chromatographic parameter: Column temperature: 25 °C,
mobile phase: IPA : 10 mM pH 7 sodium phosphate buffer 1:99, flow rate: 0.7 mL/min, detection

[4] = 1% EtOH, 10 mM pH 7 phosphate buffer
[5] = 1% IPA, 10 mM pH 7 phosphate buffer
[6] = 1% MeOH, 10 mM pH 7 phosphate buffer
[7] = 2.5% EtOH, 10 mM pH 7 phosphate buffer
[8] = 2.5% IPA, 10 mM pH 7 phosphate buffer
[9] = 2.5% MeOH, 10 mM pH 7 phosphate buffer
[10] = 5% EtOH, 10 mM pH 7 phosphate buffer
[11] = 5% IPA, 10 mM pH 7 phosphate buffer
[12] = 5% MeOH, 10 mM pH 7 phosphate buffer
[13] = 7.5% EtOH, 10 mM pH 7 phosphate buffer
[14] = 7.5% IPA, 10 mM pH 7 phosphate buffer
[15] = 7.5% MeOH, 10 mM pH 7 phosphate buffer
[16] = 10% EtOH, 10 mM pH 7 phosphate buffer
[17] = 10% IPA, 10 mM pH 7 phosphate buffer
[18] = 10% MeOH, 10 mM pH 7 phosphate buffer
[19] = 12.5% IPA, 10 mM pH 7 phosphate buffer
[20] = difference between the two enantiomers

T1 sequence (P02768 25-609): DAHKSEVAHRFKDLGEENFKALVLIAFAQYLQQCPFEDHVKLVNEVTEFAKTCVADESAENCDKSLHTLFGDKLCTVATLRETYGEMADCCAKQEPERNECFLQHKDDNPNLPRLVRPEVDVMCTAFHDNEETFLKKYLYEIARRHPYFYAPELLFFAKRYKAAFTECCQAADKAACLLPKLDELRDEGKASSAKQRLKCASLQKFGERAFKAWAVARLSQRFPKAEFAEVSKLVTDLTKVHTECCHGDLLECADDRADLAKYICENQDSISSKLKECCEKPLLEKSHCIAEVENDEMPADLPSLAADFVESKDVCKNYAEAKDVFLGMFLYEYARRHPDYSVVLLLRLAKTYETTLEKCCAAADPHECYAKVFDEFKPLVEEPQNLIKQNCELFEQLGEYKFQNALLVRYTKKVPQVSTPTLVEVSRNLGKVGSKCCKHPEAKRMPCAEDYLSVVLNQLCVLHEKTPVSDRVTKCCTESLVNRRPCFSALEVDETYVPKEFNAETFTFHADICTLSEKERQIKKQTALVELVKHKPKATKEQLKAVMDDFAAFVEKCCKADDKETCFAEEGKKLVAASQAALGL

SMILES: Cc1c(OCC(F)(F)F)ccnc1C[S@+]([O-])c1nc2ccccc2[nH]1 [S-lansoprazole]
Affinity to HSA compared to the antipode ([1]; based on the elution order of enantiomers on the HSA column): higher affinity | Δ(ΔG°) ([2]; single enantiomer): -1.58 kcal/mol | Δ(ΔH°) ([2]; single enantiomer): -2.68 kcal/mol | Δ(ΔS°) ([2]; single enantiomer): −15.9 J/molK | k retention factor ([3]; ibuprofen 0 mM): 11.17 | k retention factor ([3]; ibuprofen 0.01 mM): 9.81 | k retention factor ([3]; ibuprofen 0.05 mM): 8.51 | k retention factor ([3]; ibuprofen 0.1 mM): 7.60 | k retention factor ([3]; warfarin 0 mM): 11.17 | k retention factor ([3]; warfarin 0.01 mM): 9.03 | k retention factor ([3]; warfarin 0.05 mM): 8.13 | k retention factor ([3]; warfarin 0.1 mM): 7.44

EEO enantiomer elution order [1, 4]: R < S | Rs resolution [1, 4]: 1.0 | k1 retention factor (first-eluting enantiomer) [1, 4]: 10.13 | k2 retention factor (second-eluting enantiomer) [1, 4]: 14.32 | EEO enantiomer elution order [1, 5]: R < S | Rs resolution [1, 5]: 1.8 | k1 retention factor (first-eluting enantiomer) [1, 5]: 11.17 | k2 retention factor (second-eluting enantiomer) [1, 5]: 18.27 | EEO enantiomer elution order [1, 6]: R < S | Rs resolution [1, 6]: 1.0 | k1 retention factor (first-eluting enantiomer) [1, 6]: 10.66 | k2 retention factor (second-eluting enantiomer) [1, 6]: 15.61 | EEO enantiomer elution order [1, 7]: R < S | Rs resolution [1, 7]: 0.3 | k1 retention factor (first-eluting enantiomer) [1, 7]: 6.92 | k2 retention factor (second-eluting enantiomer) [1, 7]: 8.39 | EEO enantiomer elution order [1, 8]: R < S | Rs resolution [1, 8]: 1.0 | k1 retention factor (first-eluting enantiomer) [1, 8]: 9.26 | k2 retention factor (second-eluting enantiomer) [1, 8]: 12.87 | EEO enantiomer elution order [1, 9]: R < S | Rs resolution [1, 9]: 0.8 | k1 retention factor (first-eluting enantiomer) [1, 9]: 7.92 | k2 retention factor (second-eluting enantiomer) [1, 9]: 10.16 | k1 retention factor (first-eluting enantiomer) [1, 10]: 5.26 | k2 retention factor (second-eluting enantiomer) [1, 10]: 5.26 | EEO enantiomer elution order [1, 11]: R < S | Rs resolution [1, 11]: 0.2 | k1 retention factor (first-eluting enantiomer) [1, 11]: 5.79 | k2 retention factor (second-eluting enantiomer) [1, 11]: 6.63 | EEO enantiomer elution order [1, 12]: R < S | Rs resolution [1, 12]: 0.2 | k1 retention factor (first-eluting enantiomer) [1, 12]: 6.05 | k2 retention factor (second-eluting enantiomer) [1, 12]: 7.29 | k1 retention factor (first-eluting enantiomer) [1, 13]: 4.11 | k2 retention factor (second-eluting enantiomer) [1, 13]: 4.11 | k1 retention factor (first-eluting enantiomer) [1, 14]: 4.37 | k2 retention factor (second-eluting enantiomer) [1, 14]: 4.37 | k1 retention factor (first-eluting enantiomer) [1, 15]: 4.92 | k2 retention factor (second-eluting enantiomer) [1, 15]: 4.92 | k1 retention factor (first-eluting enantiomer) [1, 16]: 3.24 | k2 retention factor (second-eluting enantiomer) [1, 16]: 3.24 | k1 retention factor (first-eluting enantiomer) [1, 17]: 3.45 | k2 retention factor (second-eluting enantiomer) [1, 17]: 3.45 | k1 retention factor (first-eluting enantiomer) [1, 18]: 4.03 | k2 retention factor (second-eluting enantiomer) [1, 18]: 4.03 | k1 retention factor (first-eluting enantiomer) [1, 19]: 2.71 | k2 retention factor (second-eluting enantiomer) [1, 19]: 2.71 | Rs resolution ([1]; acetate buffer, 1% 2-propanol): 1.8 | Rs resolution ([1]; bicarbonate buffer, 1% 2-propanol): 1.2 | Rs resolution ([1]; citrate buffer, 1% 2-propanol): 1.9 | Rs resolution ([1]; phosphate buffer, 1% 2-propanol): 1.8 | Q ([2]; Q = Δ(ΔH°)/T × Δ(ΔS°)298K): 1.4 | Δ(ΔG°) [2, 20]: -0.17 kcal/mol | Δ(ΔH°) [2, 20]: -0.669 kcal/mol | Δ(ΔS°) [2, 20]: −7.2 J/molK | Tiso isoenantioselective temperature ([2]; Δ(ΔH°)/Δ(ΔS°)): 128.9 °C
SMILES: Cc1c(OCC(F)(F)F)ccnc1C[S+]([O-])c1nc2ccccc2[nH]1 (centres unmarked) [Lansoprazole, lansoprazole]

SMILES: Cc1c(OCC(F)(F)F)ccnc1C[S@@+]([O-])c1nc2ccccc2[nH]1 [R-lansoprazole, dexlansoprazole]
Δ(ΔG°) ([2]; single enantiomer): -1.39 kcal/mol | Δ(ΔH°) ([2]; single enantiomer): -2.01 kcal/mol | Δ(ΔS°) ([2]; single enantiomer): −8.7 J/molK | k retention factor ([3]; ibuprofen 0 mM): 18.27 | k retention factor ([3]; ibuprofen 0.01 mM): 13.98 | k retention factor ([3]; ibuprofen 0.05 mM): 10.41 | k retention factor ([3]; ibuprofen 0.1 mM): 7.60 | k retention factor ([3]; warfarin 0 mM): 18.27 | k retention factor ([3]; warfarin 0.01 mM): 14.84 | k retention factor ([3]; warfarin 0.05 mM): 12.07 | k retention factor ([3]; warfarin 0.1 mM): 10.51
